These are literature values, as cited in patent US20260335255A1, “PHARMACEUTICAL COMPOSITIONS” (priority 2022, published 2026).

Molecules are shown by their SMILES. ≈ marks a conversion by molar mass, not a printed value. Counter-ions that a name gives are not always drawn.

Series [1] deals with patients. The following applies: for side effects: b8: single subanesthetic dose.
The test system of the next series is patients with depression. The following applies: 0.5 mg/kg; 40 min infusion.
The test system of series [2] is patients. To be noted: anesthetic use; Pediatric Anesthesia 2005 15: 91-97.

For `CNC1(c2ccccc2Cl)CCCCC1=O` (centres unmarked) [ketamine hydrochloride, Ketamine Hydrochloride], in the series on patients [1] (background), the side effects entry is “blurred vision, double vision, dream-like feeling, dizziness, drowsiness, jerky muscle movements, loss of appetite, nausea, vomiting, sleep problems such as insomnia”.

For `CNC1(c2ccccc2Cl)CCCCC1=O` (racemic) [Ketamine], the solubility in water is 200 mg/mL (≈ 841 mM). Besides, the “concentration needed for therapeutic efficacy in patients with depression” value in the series with patients with depression was 185 ng/mL. Also, in the series with patients [1] (background), the effect on memory entry is “direct effects on free recall and recognition memory”; the side effects entry is “transient dissociation and psychotomimetic side effects and hemodynamic changes”. The depressive symptoms result with patients [1] (single subanesthetic dose) is “reduces depressive symptoms”. The “thought disorder and withdrawal-retardation” value in the series with healthy volunteers is “significant levels of thought disorder and withdrawal-retardation”.

As for `CN[C@]1(c2ccccc2Cl)CCCCC1=O` [S(+) ketamine], in the series with patients [2], the “duration of action compared with racemic ketamine” value is “significantly shorter acting than racemic ketamine”.
